Experimental data as given in patent US20240306670A1, “BERBERINE ALKALOIDS IN THE PREVENTION AND/OR TREATMENT OF INTESTINAL DISEASE” (priority 2017, published 2024).
Where “and” joins values, the source holds several entries; their conditions need not be identical. Equal entries are not always repeated.

What was measured:
[1] = in vivo
[2] = General safety in broilers reared to market weight by histology (Example 8); settings: histology D42
[3] = system: Eimeria species (mainly E. acervulina); settings: in vivo
[4] = Feed palatability, feed and water consumption and bird productivity study (Example 2); type: in vivo, broiler chickens
Description: A follow-up study to determine the feed palatability, feed and water consumption and bird productivity following incorporation of a single formulation of IRP001 hemisulfate salt (unmasked) when offered to broiler chickens in-feed or in-water. The study explores the optimal treatment regime in terms of treatment start date.
Phase 1: On receipt, two hundred and seventy (270) day-old commercial broiler chickens were allocated sequentially as they are received into sixteen (16) individual floor pens, each of 16 or 17 birds, on Day 0.
Phase 2: On receipt, the ninety (90) day-old commercial broiler chickens were allocated sequentially as they are received into four (4) individual floor pens, each of 22 or 23 birds, on Day 22.
Feed intake, water intake, weight gain and mortality were used as outcome parameters.
Individual daily feed intake and individual daily water intake data by pen and then by treatment group were calculated for Phases 1 and 2 (and for the entire trial for the birds in Group/Pen 2, 15 and 16 that continue through both Phases) using figures for total feed and water provided each day to each pen divided by the number of birds in each pen. Where errors in weighing, feeding/watering or recording (or other unexplained losses of feed and water) had occurred means were adjusted by using the mean value for the same pen on the 1-2 days either side of the apparent error. Similarly, group mean bodyweights were calculated for Phase 1 using total weight/total no. birds for Day 0 and individual weights from Days 7, 14, 21, 28, 35 and 42. Total (individual) feed consumed was calculated per treatment and feed conversion ratios per treatment calculated using the expression: total (individual) feed/total (individual) weight gain.
Individual daily feed intake and individual daily water intake were statistically compared by treatment within each phase and between Pens 2 and 15/16 over both phases using a linear model:—
and Tibco SPOTFIRE S+ 8.2 (2010). ‘Day’ was included in the model to allow for changes over time, ‘Pen’ as each treatment consisted of 2 pens while an interaction term ‘Treatment:Day’ was included to allow for treatment×time effects. Model suitability was confirmed by inspection of residual plots; in all instances the statistical model was appropriate.

[5] = Phase 1, IVP 1 g/L in-water Day 0-21, pens 3, 4
[6] = Phase 1, IVP 1 g/L in-water Day 1-21, pens 5, 6
[7] = Phase 1, IVP 1 g/L in-water Day 2-21, pens 7, 8
[8] = Phase 1, IVP 1 g/L in-water Day 3-21, pens 9, 10
[9] = Phase 1, IVP 1 g/L in-water Day 4-21, pens 11, 12
[10] = Phase 1, IVP 1 g/L in-water Day 5-21, pens 13, 14
[11] = Phase 1, IVP 1 g/L in-water Day 6-21 (42), pens 15, 16
[12] = Phase 2 (day-old chicks received Day 22), pens 19, 20, Day 25-42FEED (IVP in-feed)
[13] = Phase 2 summary, pens 15, 16, D6-21(42), IVP 1 g/L in-water, birds kept to day 42

Compound: COc1ccc2cc3[n+](cc2c1OC)CCc1cc2c(cc1-3)OCO2 [IRP001 chloride, berberine chloride]
- Cumulative Pathology and Enteritis scores [1]: equal or lower than the control
- gastrointestinal tract (GIT) histologic lesions [2]: within normal limits
- liver histologic lesions [2]: within normal limits
- FCR 0-14 corrected for mortality [3]: 1.120 and 1.125 and 1.103
- FCR 0-21 corrected for mortality [3]: 1.285 and 1.256 and 1.250
- FCR 0-28 corrected for mortality [3]: 1.470 and 1.467 and 1.486
- Feed per bird over days 0-14 [3]: 485^B g/bird and 513^A g/bird and 512^A g/bird
- Feed per bird over days 0-21 [3]: 1186^B g/bird and 1227^AB g/bird and 1240^AB g/bird
- Feed per bird over days 0-28 [3]: 1957 g/bird and 2037 g/bird and 2049 g/bird
- Feed per bird over days 0-42 [3]: 4121 g/bird and 4247 g/bird and 4305 g/bird
- Mean Weight Gain over days 0-7 [3]: 113 gm and 121 gm and 119 gm
- Mean Weight Gain over days 8-14 [3]: 320^C gm and 334^A gm and 343^A gm
- Mean Weight Gain over days 15-21 [3]: 491^B gm and 517^A gm and 528^A gm
- Mean Weight Gain over days 22-28 [3]: 593 gm and 618 gm and 600 gm
- Mean Weight Gain over days 29-42 [3]: 1324 gm and 1341 gm and 1436 gm
- Mean live weight at 0 days [3]: 41 gm
- Mean live weight at 7 days [3]: 154 gm and 163 gm and 160 gm
- Mean live weight at 14 days [3]: 432^B gm and 456^A gm and 461^A gm
- Mean live weight at 21 days [3]: 973^C gm and 972^AB gm and 989^A gm
- Mean live weight at 28 days [3]: 1517^B gm and 1590^A gm
- Mean live weight at 42 days [3]: 2840^B gm and 2932^A gm and 3026^A gm
- appearance of bird health [3]: always appeared healthy
- droppings [3]: moist yellow-ish droppings
- early growth rate [3]: significantly lower than all other groups
- growth rate [3]: statistically similar to the control group
- lesion scores in duodenum, jejunum and total gut [3]: highest lesion scores
- reduction of coccidial lesions [3]: not by the lower dose rates
- total intestinal health scores (Tierlynck et al.) [3]: approached significance
- translucency score upper intestine and undigested feed particles in rectum [3]: reduced translucency score in the upper intestine and the presence of undigested feed particles in the rectum
- FCR [4, 5]: 1.49
- Gain [4, 5]: 0.610 kg
- Group mean bodyweight Day 0 [4, 5]: 43.2
- Group mean bodyweight Day 7 [4, 5]: 118.1
- Group mean bodyweight Day 14 [4, 5]: 291.9
- Group mean bodyweight Day 22 [4, 5]: 653.6
- Total Feed [4, 5]: 0.908 kg
- FCR [4, 6]: 1.50
- Gain [4, 6]: 0.678 kg
- Group mean bodyweight Day 0 [4, 6]: 42.4
- Group mean bodyweight Day 7 [4, 6]: 125.8
- Group mean bodyweight Day 14 [4, 6]: 309.0
- Group mean bodyweight Day 22 [4, 6]: 720.7
- Total Feed [4, 6]: 1.019 kg
- FCR [4, 7]: 1.45
- Gain [4, 7]: 0.675 kg
- Group mean bodyweight Day 0 [4, 7]: 44.6
- Group mean bodyweight Day 7 [4, 7]: 132.0
- Group mean bodyweight Day 14 [4, 7]: 315.4
- Group mean bodyweight Day 22 [4, 7]: 719.4
- Total Feed [4, 7]: 0.977 kg
- FCR [4, 8]: 1.44
- Gain [4, 8]: 0.653 kg
- Group mean bodyweight Day 0 [4, 8]: 42.4
- Group mean bodyweight Day 7 [4, 8]: 118.6
- Group mean bodyweight Day 14 [4, 8]: 295.1
- Group mean bodyweight Day 22 [4, 8]: 695.7
- Total Feed [4, 8]: 0.939 kg
- FCR [4, 9]: 1.46
- Gain [4, 9]: 0.716 kg
- Group mean bodyweight Day 0 [4, 9]: 41.8
- Group mean bodyweight Day 7 [4, 9]: 138.8
- Group mean bodyweight Day 14 [4, 9]: 320.3
- Group mean bodyweight Day 22 [4, 9]: 758.2
- Total Feed [4, 9]: 1.046 kg
- FCR [4, 10]: 1.48
- Gain [4, 10]: 0.680 kg
- Group mean bodyweight Day 0 [4, 10]: 44.3
- Group mean bodyweight Day 7 [4, 10]: 135.3
- Group mean bodyweight Day 14 [4, 10]: 316.8
- Group mean bodyweight Day 22 [4, 10]: 724.7
- Total Feed [4, 10]: 1.010 kg
- FCR [4, 11]: 1.40
- Gain [4, 11]: 0.723 kg
- Group mean bodyweight Day 0 [4, 11]: 43.8
- Group mean bodyweight Day 7 [4, 11]: 139.1
- Group mean bodyweight Day 14 [4, 11]: 325.2
- Group mean bodyweight Day 22 [4, 11]: 767.2
- Total Feed [4, 11]: 1.016 kg
- Bodyweight Day 28 [4, 12]: 112.4 g
- Bodyweight Day 35 [4, 12]: 273.6 g
- Bodyweight Day 42 [4, 12]: 614.9 g
- FCR [4, 12]: 1.56
- Feed [4, 12]: 0.783 kg
- Gain [4, 12]: 0.502 kg
- Bodyweight Day 28 [4, 13]: 1.16 kg
- Bodyweight Day 35 [4, 13]: 1.66 kg
- Bodyweight Day 42 [4, 13]: 2.39 kg
- FCR [4, 13]: 1.64
- Feed [4, 13]: 3.841 kg
- Gain [4, 13]: 2.346 kg
